EP2628732A1, “Novel crystalline form of rilpivirine hydrochloride” (Sandoz AG, priority 2012, dated 2013)
One block for each compound: values may come before it.

What was measured:
[1] = Solubility determination in 0.01 N aqueous HCl (gravimetric, suspensions stirred, sampled after 30 min); assay type: physicochemical; conditions: 0.01 N aqueous HCl at 25 ± 0.1 °C, samples taken after 30 min, monohydrochloride
Method: The solubility data of form E of the present invention and forms A and C of EP1632232 B1 in 0.01 N aqueous HCl at 25 ± 0.1 °C are presented in table 1. Table 1: Solubility data in 0.01 N aqueous HCl at 25 ± 0.1 °C Suspensions of forms A, C and E in 0.01 N aqueous HCl were stirred in closed vessels with a diameter of 25 mm in a thermostatic water bath at 25 ± 0.1 °C. Before the solute was added the solvent was equilibrated to the temperature. Three samples of each modification were taken with […] filter holders attached to volumetric pipettes (2 mL) via a small glass tube after 30 min. They were sucked through Millipore membrane filters (0.45 μm) and 2 mL of the clear solution were poured in vessels which had been dried and tared before. The hydrochloric acid was evaporated in a drying chamber at 60 °C for approximately 15 h before the temperature was further increased to 80 °C for approximately 3 h. To remove residue water, the vessels were subsequently dried at 110 °C and 60 mbar for approximately 3 h. Afterwards the vials with the residue were cooled to room temperature in an exsiccator and weighed on an analysis balance (Mettler AT250). The difference in weight to the tare weight was then measured to determine the solubilities.

[2] = Water content at defined relative humidity; assay type: physicochemical

Solubility ([1]; listed as E): 270 µg/mL
water ([2]; at a relative humidity of about 0 %): about 0%
water ([2]; at a relative humidity of about 90 %): about 0.8%
SMILES: Cc1cc(C=CC#N)cc(C)c1Nc1ccnc(Nc2ccc(C#N)cc2)n1.Cl [Form E, 4-[[4-[[4-(2-Cyanoethenyl)-2,6-dimethylphenyl]amino]-2-pyrimidinyl]amino]benzonitrile monohydrochloride]

Solubility ([1]; listed as A): 80 µg/mL
SMILES: Cc1cc(C=CC#N)cc(C)c1Nc1ccnc(Nc2ccc(C#N)cc2)n1.Cl [Form A, 4-[[4-[[4-(2-Cyanoethenyl)-2,6-dimethylphenyl]amino]-2-pyrimidinyl]amino]benzonitrile monohydrochloride]

Solubility ([1]; listed as C): 100 µg/mL
SMILES: Cc1cc(C=CC#N)cc(C)c1Nc1ccnc(Nc2ccc(C#N)cc2)n1.Cl [Form C, 4-[[4-[[4-(2-Cyanoethenyl)-2,6-dimethylphenyl]amino]-2-pyrimidinyl]amino]benzonitrile monohydrochloride]
